From ChEMBL document CHEMBL1149980, “Synthesis of rutaecarpine and cytotoxic analogues” (1995)

Key:
Format in all cases: functional
Conditions in all cases: Homo sapiens
A549 = test: Tested for in vitro cytotoxicity against non-small cell lung cancer cell line A549/ATCC
CCRF-CEM = test: Tested for in vitro cytotoxicity against leukemia cell line CCRF-CEM
Hs-578T = test: Tested for in vitro cytotoxicity against breast cancer cell line Hs 578.T
NCI-H460 = test: Tested for in vitro cytotoxicity against non-small cell lung cancer cell line NCI-H460
OVCAR-4 = test: Tested for in vitro cytotoxicity against ovarian cancer cell line OVCAR-4
786-0 = test: Tested for in vitro cytotoxicity against renal cancer cell line 786-0

COc1ccc2c3c([nH]c2c1)-c1nc2ccccc2c(=O)n1CC3 was tested, and the GI50 (A549) was 0.75 µM, the GI50 (CCRF-CEM) was over 25 µM and the GI50 (Hs-578T) was 1.59 µM. The GI50 (NCI-H460) was 1.38 µM, the GI50 (OVCAR-4) was over 25 µM and the GI50 (786-0) was 0.31 µM.
O=c1c2ccccc2nc2n1CCc1c-2[nH]c2cc3c(cc12)OCO3 gave a GI50 (A549) of over 25 µM, a GI50 (CCRF-CEM) of over 25 µM and a GI50 (Hs-578T) of 5.05 µM. It also gave a GI50 (NCI-H460) of 1.55 µM, a GI50 (OVCAR-4) of 1.5 µM and a GI50 (786-0) of 1.08 µM.
COc1ccc2[nH]c3c(c2c1)CCn1c-3nc2ccccc2c1=O was tested, and the GI50 (A549) was over 25 µM, the GI50 (CCRF-CEM) was over 25 µM and the GI50 (Hs-578T) was over 25 µM. The GI50 (NCI-H460) was over 25 µM, the GI50 (OVCAR-4) was over 25 µM and the GI50 (786-0) was over 25 µM.
O=c1c2ccccc2nc2n1CCc1c-2[nH]c2ccccc12 [RUTAECARPINE] gave a GI50 (A549) of 14.5 µM, a GI50 (CCRF-CEM) of 18.9 µM and a GI50 (Hs-578T) of 22.6 µM. For the same compound, the GI50 (OVCAR-4) was 18.9 µM.
